Assay results published in US8394954B2, “Benzophenone hybrids as anticancer agents and processes for the preparation thereof” (Council of Scientific & Industrial Research, priority 2007, dated 2013).

Legend:
[1] = test system: ovarian cancer OVCAR-5 cell line; test: NCI in vitro anticancer screen, OVCAR-5; type: cell-based; details: Homo sapiens
Method: (§1) Compounds described herein were evaluated for in vitro anticancer activity. Particularly the 6a, 6b, 6d, 6h, 8a and 8b compounds were evaluated for in vitro anticancer activity against sixty human tumor cells derived from nine cancer types (leukemia, non-small-cell lung, colon, […], ovarian, prostate, and breast cancer) as shown in (Table 2 and 3). For the compound, dose response curves for each cell line were measured at a minimum of five concentrations at 10 fold dilutions. A protocol of 48 h continuous drug exposure was used and a sulforhodamine B (SRB) protein assay was used to estimate cell viability or growth. The concentration causing 50% cell growth inhibition (GI50), total cell growth inhibition (TGI 0% growth) and 50% cell death (LC50, −50% growth) compared with the control was calculated.
(§2) In the non-small cell lung cancer panel, the growth of HOP-62, […] were affected by compound 6d with G150 values as 11.7, 13.9 and 17.2 nM respectively. […] In vitro cytotoxicity of compounds 6d, 8a, and 8b in selected cancer cell lines has been illustrated in Table 3. The average G150 values for each cancer panel of compounds 6a, 6b, 6d, 6e, 8a and 8b have been illustrated in Table 2.

[2] = test system: ovarian cancer SK-OV-3 cell line; test: NCI in vitro anticancer screen, SK-OV-3; type: cell-based; details: Homo sapiens
Method: as §1, §2

[3] = test system: ovarian cancer OVCAR-4 cell line; test: NCI in vitro anticancer screen, OVCAR-4; type: cell-based; details: Homo sapiens
Method: as §1, §2

[4] = test system: human cancer cell lines of colon (Colo205), lung (Hop-62), cervix (SiHa), prostate (DU145, PC3), oral (DWD, HT1080), and breast (MCF7, Zr-75-1) origin; test: In vitro evaluation of cytotoxic activity in selected human cancer cell lines, 48 h exposure; type: cell-based; details: 48 h continuous drug exposure
Method: In vitro evaluation of cytotoxic activity. Compounds 6a, 6b, 6d, 6e, 8a and 8b were evaluated for in vitro anticancer activity against nine human tumor cells derived from six cancer types (colon, prostate, oral, lung, cervix and breast cancer) as shown in Table 2. […] Compounds 6a, 6b, 6d, 6e, 8a and 8b have been evaluated for their in vitro cytotoxicity in selected human cancer cell lines of colon (Colo205), lung (Hop-62), cervix (SiHa), prostate (DU145, PC3), oral (DWD, HT1080), and breast (MCF7, Zr-75-1) origin. A protocol of 48 h continuous drug exposure has been used and an […] has been used to estimate cell viability or growth. The results are expressed as percent of cell growth determined relative to that of untreated control cells

[5] = test system: CNS cancer cell lines; test: NCI in vitro anticancer screen, CNS panel; type: cell-based, human; details: Homo sapiens, average of six to nine cell lines, read-out: Log GI50 (concentration in mol/L causing 50% growth inhibition) (converted)
Method: as §1

[6] = test system: sixty human tumor cells derived from nine cancer types; test: NCI in vitro anticancer screen, 48 h exposure, SRB assay, mean over all lines; type: cell-based
Method: as §1

[7] = test system: ovarian cancer OVCAR-8 cell line; test: NCI in vitro anticancer screen, OVCAR-8; type: cell-based; details: Homo sapiens
Method: as §1, §2

[8] = test system: Melanoma cancer cell lines; test: NCI in vitro anticancer screen, melanoma panel; type: cell-based, human; details: Homo sapiens, average of six to nine cell lines, read-out: Log GI50 (concentration in mol/L causing 50% growth inhibition) (converted)
Method: as §1

[9] = test system: Breast cancer cell lines; test: NCI in vitro anticancer screen, breast panel; type: cell-based, human; details: Homo sapiens, average of six to nine cell lines, read-out: Log GI50 (concentration in mol/L causing 50% growth inhibition) (converted)
Method: as §1

[10] = test system: colon cancer KM12 cell line; test: NCI in vitro anticancer screen, KM12; type: cell-based; details: Homo sapiens
Method: as §1, §2

[11] = test system: HOP-62, NCI-H23 cell lines; test: NCI in vitro anticancer screen, non-small cell lung lines; type: cell-based; details: Homo sapiens, non-small cell lung cancer panel
Method: as §1, §2

[12] = test system: Leukemia cancer cell lines; test: NCI in vitro anticancer screen, leukemia panel; type: cell-based, human; details: Homo sapiens, average of six to nine cell lines, read-out: Log GI50 (concentration in mol/L causing 50% growth inhibition) (converted)
Method: as §1

[13] = test system: renal and breast cancer panels; test: NCI in vitro anticancer screen, renal and breast panels; type: cell-based; details: Homo sapiens; range over renal and breast cancer panels
Method: as §1, §2

[14] = test system: Renal cancer cell lines; test: NCI in vitro anticancer screen, renal panel; type: cell-based, human; details: Homo sapiens, average of six to nine cell lines, read-out: Log GI50 (concentration in mol/L causing 50% growth inhibition) (converted)
Method: as §1

[15] = test system: duplex-form calf thymus DNA (CT-DNA); test: Thermal denaturation studies with CT-DNA; type: binding; details: [BPD]:[DNA] molar ratio 1:5, CT-DNA 100 μM, ligand 20 μM, pH 7.00
Method: Compounds were subjected to thermal denaturation studies with duplex-form calf thymus DNA (CT-DNA). Working solutions in aqueous buffer (10 mM NaH2PO4/Na2HPO4, 1 mM Na2EDTA, pH 7.00+0.01) containing CT-DNA (100 μm in phosphate) and the BPD (20 μm) were prepared by addition of concentrated BPD solutions in DMSO to obtain a fixed [BPD]/[DNA] molar ratio of 1:5. The DNA-BPD solutions were incubated at 37° C. for 0, 18, and 36 h prior to analysis. Samples were monitored at 260 nm using a Beckman DU-7400 spectrophotometer fitted with high performance temperature controller, and heating was applied at 1° C. min-1 in the 40-90° C. range. DNA helix coil transition temperatures (Tm) were obtained from the maxima in the (dA260)/dT derivative plots. Results are given as the mean±standard deviation from three determinations and are corrected for the effects of DMSO co-solvent using a linear correction term. Drug-induced alterations in DNA melting behavior are given by: ΔTm=Tm(DNA+BPD)−Tm(DNA alone), where the Tm value for the BPD-free CT-DNA is 69.0±0.01.

[16] = test system: Colon cancer cell lines; test: NCI in vitro anticancer screen, colon panel; type: cell-based, human; details: Homo sapiens, average of six to nine cell lines, read-out: Log GI50 (concentration in mol/L causing 50% growth inhibition) (converted)
Method: as §1

[17] = test system: colon cancer HCT-116 cell line; test: NCI in vitro anticancer screen, HCT-116; type: cell-based; details: Homo sapiens
Method: as §1, §2

[18] = test system: CNS SF-295, SF-539, SNB-19 and SNB-75 cell lines; test: NCI in vitro anticancer screen, CNS lines; type: cell-based; details: Homo sapiens; range over SF-295, SF-539, SNB-19 and SNB-75
Method: as §1, §2

[19] = test system: Prostate cancer cell lines; test: NCI in vitro anticancer screen, prostate panel; type: cell-based, human; details: Homo sapiens, average of six to nine cell lines, read-out: Log GI50 (concentration in mol/L causing 50% growth inhibition) (converted)
Method: as §1

[20] = test system: colon cancer HCC-2988 cell line; test: NCI in vitro anticancer screen, HCC-2988; type: cell-based; details: Homo sapiens
Method: as §1, §2

[21] = test system: Ovarian cancer cell lines; test: NCI in vitro anticancer screen, ovarian panel; type: cell-based, human; details: Homo sapiens, average of six to nine cell lines, read-out: Log GI50 (concentration in mol/L causing 50% growth inhibition) (converted)
Method: as §1

[22] = test system: Nonsmall-cell-lung cancer cell lines; test: NCI in vitro anticancer screen, non-small-cell lung panel; type: cell-based, human; details: Homo sapiens, average of six to nine cell lines, read-out: Log GI50 (concentration in mol/L causing 50% growth inhibition) (converted)
Method: as §1

With `O=C(CN1CCN(c2ncnc3ccccc23)CC1)Nc1ccc(Cl)cc1C(=O)c1ccccc1Cl` [Compound 6d, N1-4-chloro-2-(2-chlorobenzoyl)phenylJ-2-[4-(4-quinazolinyl)piperazino]acetamide] the GI50 [1] was 14.9 nM, the GI50 [2] was 78.6 nM and the GI50 [3] was 30.6 nM. For the same molecule, the “cytotoxicity against some cancer cell lines” value [4] was “promising cytotoxicity”, the GI50 [5] was 224 nM and the GI50 ([6]; Homo sapiens, wide spectrum of activity against sixty cell lines in nine cell panels) was less than 20000 nM. For the same molecule, the “Log10LC50 mean graph midpoint (MG_MID)” value ([6]; human tumor cell lines, 48 h exposure, 50% cell death) was −4.62, the “Log10GI50 mean graph midpoint (MG_MID)” value ([6]; human tumor cell lines, 48 h exposure, 50% cell growth inhibition) was −6.82 and the “Log10TGI mean graph midpoint (MG_MID)” value ([6]; human tumor cell lines, 48 h exposure, total cell growth inhibition) was −6.56. For the same molecule, the GI50 [7] was 30.5 nM, the GI50 [8] was 204 nM and the GI50 [9] was 178 nM. It also gave a GI50 [10] of 11.4 nM, a GI50 [11] of 11.7 nM and a GI50 [12] of 151 nM. The GI50 [13] was 11.6 to 43.4 nM, the GI50 [14] was 214 nM and the “ΔTm after incubation at 37° C. for 0 h” value ([15]; 0 h) was 1.5 °C. The “ΔTm after incubation at 37° C. for 18 h” value ([15]; 18 h) was 1.9 °C, the “ΔTm after incubation at 37° C. for 36 h” value ([15]; 36 h) was 2.7 °C and the GI50 [16] was 229 nM. For the same molecule, the GI50 [17] was 11.2 nM, the GI50 [18] was 11.6 to 24.2 nM and the GI50 [19] was 398 nM. For the same molecule, the GI50 [20] was 11.6 nM, the GI50 [21] was 219 nM and the GI50 [22] was 389 nM.
